For 81 sequences, target mRNA inhibition results are on record in the OligoGym collection.

Series [1] concerns the target APOL1. Conditions: ASO.
The target in series [2] is MALAT1. The following applies: ASO, A431, 0.005 µM.

Several values for one entry are separate records, joined by “and”; a condition that tells them apart may be missing. Identical values can stand only once. After the bases stand the sugars from the 5' end (letter, count) and the backbone: PS all phosphorothioate, else s phosphorothioate and o phosphodiester by linkage. Methylation of C is not given here. e = 2'-O-(2-methoxyethyl) (MOE); k = constrained ethyl (cEt); d = 2'-deoxy (DNA)

Take “ATTCAGAATTTCCACT (sugars kkddddkdkdkddddd, PS)”: in series [1] (A431, 2 µM), the target mRNA inhibition came to 79%.
On the same count and under the same terms, the same measure for “GTTATGAAATTATTGG (sugars kkddddkekekddddd, PS)”: 83%.
Take GCTATGGAAATGCCAA (sugars k4 d9 k3, PS): the target mRNA inhibition turned out to be 28% in series [1] (A431, 0.0625 µM); 61% in series [1] (A431, 0.25 µM); 81% in series [1] (A431, 1 µM).
Regarding “GTTCAAAAGCAGCATT (sugars kkkddddkekekdddd, PS)”, the target mRNA inhibition in series [1] (A431, 2 µM) stood at 24%.
The same measure, in the same setting: next, “CTGAAGATTGGCTCTG (sugars kkddddkekekddddd, PS)”: 45%; “AGTATTGTTTTTGTGG (sugars kkddddekekeddddd, PS)”: 89%; “TGGGAATTATGGAATT (sugars kkddddkekekddddd, PS)”: 87%.
In the case of GAGTCATTTGCTAGGT (sugars k4 d9 k3, PS), the target mRNA inhibition in series [1] (A431, 0.0625 µM) came out at 78%; in series [1] (A431, 0.25 µM), 89%; in series [1] (A431, 1 µM) it was 92%.
For “ATTCAGAATTTCCACT (sugars k2 d4 e4 k2 d4, PS)”, in series [1] (A431, 2 µM), the target mRNA inhibition amounted to 64%.
Same read-out and setting: next, “AGCTTTAAACTCAGGT (sugars k3 d4 k3 e1 d5, PS)”: 82%; “GCTTTAAACTCAGGTG (sugars kkkddddkekeddddd, PS)”: 82%.
The same measure, in the same setting: the same measure for “AGCTTTAAACTCAGGT (sugars kkddddkekekddddd, PS)”: 87%.
For GTTTACTTACCGGGTA (sugars k4 d9 k3, PS), the target mRNA inhibition in series [1] (A431, 0.0625 µM) is 47% and 38%; in series [1] (A431, 1 µM), 84% and 63%.
Turning to TCCGTTCCAGGCCTCA (sugars k4 d9 k3, PS), the target mRNA inhibition in series [1] (A431, 0.0625 µM) worked out at 29%; in series [1] (A431, 0.25 µM), 44%; in series [1] (A431, 1 µM), 58%.
As for “GTGTATTTCTTGATGT (sugars k2 d4 e3 k2 d5, PS)”, the target mRNA inhibition in series [1] (A431, 0.0156 µM) is 18%; in series [1] (A431, 0.0625 µM) it was 51%; in series [1] (A431, 0.25 µM), 79%; in series [1] (A431, 1 µM), 91%; in series [1] (A431, 2 µM), 96%.
In the case of GAACGCAATGCTGACT (sugars k3 d10 k3, PS), the target mRNA inhibition in series [1] (A431, 0.0625 µM) came out at 14%; in series [1] (A431, 0.25 µM) it was 50%; in series [1] (A431, 1 µM), 76%.
On to “TTTATACCAGTGTCTT (sugars kkkddddkekekdddd, PS)”, for which the target mRNA inhibition in series [1] (A431, 2 µM) came to 76%.
As for “ACACATCATTGGGTTA (sugars kekddddeekkddddd, PS)”, the target mRNA inhibition in series [1] (A431, 2 µM) came to 87%.
The same measure, in the same setting: next, “TCAGATGGGTACTTCT (sugars k2 d4 e4 k2 d4, PS)”: 78%.
Turning to CTTTATACCAGTGTCT (sugars k3 d10 k3, PS), the target mRNA inhibition worked out at 30% in series [1] (A431, 0.0625 µM); 65% in series [1] (A431, 0.25 µM); 88% in series [1] (A431, 1 µM).
For “GCTTTAAACTCAGGTG (sugars kkddddekekeddddd, PS)”, the target mRNA inhibition is 14% in series [1] (A431, 0.0156 µM); 41% in series [1] (A431, 0.0625 µM); 62% in series [1] (A431, 0.25 µM); 86% in series [1] (A431, 1 µM); 92% in series [1] (A431, 2 µM).
Turning to TCAGCTAAGACCAGTG (sugars k4 d9 k3, PS), the target mRNA inhibition in series [1] (A431, 0.0625 µM) is 53%; in series [1] (A431, 0.25 µM), 78%; in series [1] (A431, 1 µM) it was 89%.
“ATCAGATGGGTACTTC (sugars kkdddddkekeddddd, PS)”: in series [1] (A431, 2 µM), the target mRNA inhibition is 83%.
On the same count and under the same terms, next, “TCTATTAGAGGGCTAG (sugars kkdddddkekeddddd, PS)”: 72%.
Turning to CAGCTATGGAAATGCC (sugars k4 d9 k3, PS), the target mRNA inhibition in series [1] (A431, 0.0625 µM) was 34%; in series [1] (A431, 0.25 µM), 58%; in series [1] (A431, 1 µM), 79%.
The corresponding values for TCATTAGTGCTATAGA (sugars k4 d9 k3, PS) are 25%, 71% and 86%.
On the same counts, the results for GAGTCATTAGTGCTAT (sugars k4 d9 k3, PS) are 53%, 77% and 85%.
Regarding “TTCTATTAGAGGGCTA (sugars kkddddkdkdkddddd, PS)”, the target mRNA inhibition in series [1] (A431, 2 µM) was 87%.
Regarding “GAGTATTGTTTTTGTG (sugars kkddddekekeddddd, PS)”, the target mRNA inhibition was 40% in series [1] (A431, 0.0156 µM); 47% and 50% in series [1] (A431, 0.04 µM); 78% in series [1] (A431, 0.0625 µM); 92% in series [1] (A431, 0.25 µM); 97% in series [1] (A431, 1 µM); 98% in series [1] (A431, 2 µM).
With “GTTCTAACTCTTGGGC (sugars kdddddkekekddddd, PS)”, in series [1] (A431, 2 µM), the target mRNA inhibition was 28%.
On the same count and under the same terms, the same measure for “ACGCAATGCTGACTTG (sugars kkkddddkekeddddd, PS)”: 87%; for “ATCAGATGGGTACTTC (sugars kdddddkekekddddd, PS)”: 73%; for “GTATTGTTTTTGTGGG (sugars kkddddkekekkdddd, PS)”: 39%.
Same read-out and setting: next, “GTAAGTATTGCCAGCT (sugars kkkddddkekekdddd, PS)”: 73%.
On the same count and under the same terms, next, “TGTTATATTTGATCCT (sugars k2 d4 e3 k2 d5, PS)”: 87%.
On to ATTCTAGACAGACCTA (sugars k3 d10 k3, PS), for which, in series [2], the target mRNA inhibition stood at 33%.
Same read-out and setting: next, CAAAATGGCGGACTTT (sugars k3 d10 k3, PS): 17%; AACCAACTTCCCCTTC (sugars k3 d10 k3, PS): 16%; TCACTACTCCAAGCAT (sugars k3 d10 k3, PS): 21%.
AGAAGTCTCGGGCTGC (sugars k3 d10 k3, PS): the target mRNA inhibition in series [2] amounted to 8%.
As to ACCACTCTAAGATTGT (sugars k3 d10 k3, PS), the target mRNA inhibition in series [2] is -11%.
The same measure, in the same setting: next, GCAGTTTCTATAGTAG (sugars k3 d10 k3, PS): 45%; GTACGAAACTCCCCCA (sugars k3 d10 k3, PS): 38%; AGAAGAATCCCCCCCA (sugars k3 d10 k3, PS): -13%.
Still for that read-out and setting: next, CAACTTGGAAGTTGAT (sugars k3 d10 k3, PS): 10%.
On the same count and under the same terms, next, TTCTAATAGCAGCGGG (sugars k3 d10 k3, PS): 59% and 40%.
Turning to CATCCAAACTCTACAT (sugars k3 d10 k3, PS), in series [2], the target mRNA inhibition was found to be 23%.
The same measure, in the same setting: the same measure for GACGCAATTCTCCCTG (sugars k3 d10 k3, PS): 27%.
Same read-out and setting: next, GAGATACCTGTCTGAG (sugars k3 d10 k3, PS): 40%; CATAAGTAAGTTCCAG (sugars k3 d10 k3, PS): 49%.
Same read-out and setting: the same measure for AAACAACATATTGCCG (sugars k3 d10 k3, PS): 20%; for GCACTAAAGATCACTG (sugars k3 d10 k3, PS): 23%.
As to CCGCAGGGATTTGAAC (sugars k3 d10 k3, PS), the target mRNA inhibition in series [2] amounted to 2%.
Consider AATCCCTTCAGGATCA (sugars k3 d10 k3, PS), for which, in series [2], the target mRNA inhibition turned out to be 8%.
Same read-out and setting: next, AGTTGGTAATTACTCT (sugars k3 d10 k3, PS): 40%; CTGTGTTATGCCTGGT (sugars k3 d10 k3, PS): -3%.
Still for that read-out and setting: next, ACAATCACTACTCCAA (sugars k3 d10 k3, PS): 31%; CATACAAACTGCTTAC (sugars k3 d10 k3, PS): 29%.
Consider GCCTACTCAAGCTCTT (sugars k3 d10 k3, PS), for which the target mRNA inhibition in series [2] came to 20%.
With TCCAATACTTGTCTTA (sugars k3 d10 k3, PS), the target mRNA inhibition in series [2] is 68% and 75%.
On the same count and under the same terms, the same measure for AGTAGTTGTATTAATC (sugars k3 d10 k3, PS): 64% and 41%; for TTTTAAAAGATCGCCT (sugars k3 d10 k3, PS): 33%; for GTATTACTCTAATCAC (sugars k3 d10 k3, PS): 34%.
Same read-out and setting: the same measure for AACTGATCTGACTTTG (sugars k3 d10 k3, PS): 34%; for CCTGCTACCTTCATCA (sugars k3 d10 k3, PS): 22%; for ACCGTAACAGGCCACT (sugars k3 d10 k3, PS): 20%.
On the same count and under the same terms, next, TATCTGTTAACAGCTG (sugars k3 d10 k3, PS): 41%.
With TGCTAGCTTGGCCAAG (sugars k3 d10 k3, PS), the target mRNA inhibition in series [2] worked out at 16%.
Same read-out and setting: the same measure for CTGAAGAGCATTGGAG (sugars k3 d10 k3, PS): 50%; for TTCAGACCTTCTGAAC (sugars k3 d10 k3, PS): -8%.
With TTCCAGGATTAATGTA (sugars k3 d10 k3, PS), in series [2], the target mRNA inhibition was 37%.
As to GACTGAATATGAACCA (sugars k3 d10 k3, PS), the target mRNA inhibition in series [2] was 51% and 76%.
Same read-out and setting: next, CCCGGAACTTTTAAAA (sugars k3 d10 k3, PS): -7%; TGCAGTTTCTATAGTA (sugars k3 d10 k3, PS): 9%.
Turning to CTCAGGGTTATGCTTA (sugars k3 d10 k3, PS), the target mRNA inhibition in series [2] came out at 40%.
Same read-out and setting: next, AATGTACTCAGCTTCA (sugars k3 d10 k3, PS): 48%.
The same measure, in the same setting: next, TGCTTATTCCCCAATG (sugars k3 d10 k3, PS): 52%.
Still for that read-out and setting: next, ACTACCAGCCATTTCT (sugars k3 d10 k3, PS): 49%; CCCCATTATATTAGAA (sugars k3 d10 k3, PS): -6%; GCACATCATGCTATTC (sugars k3 d10 k3, PS): 45%.
On to TGCGACTTGCTCCCAA (sugars k3 d10 k3, PS), for which the target mRNA inhibition in series [2] is -13%.
